In patent EP3436445B1, “HISTONE DEMETHYLASE INHIBITORS” (Celgene Quanticel Research, Inc., priority 2016, dated 2017):

Legend:
FBXL10 = target: T1, FBXL10 (Homo sapiens, UniProt Q8NHM5); experiment: FBXL10 in vitro enzyme inhibition assay (AlphaScreen); format: biochemical; conditions: Table 3; 0.3 nM FBXL10, H3K36me2-biotin labeled peptide
T1 construct: purchased BPS Bioscience 50120
T1 sequence (Q8NHM5 1-650): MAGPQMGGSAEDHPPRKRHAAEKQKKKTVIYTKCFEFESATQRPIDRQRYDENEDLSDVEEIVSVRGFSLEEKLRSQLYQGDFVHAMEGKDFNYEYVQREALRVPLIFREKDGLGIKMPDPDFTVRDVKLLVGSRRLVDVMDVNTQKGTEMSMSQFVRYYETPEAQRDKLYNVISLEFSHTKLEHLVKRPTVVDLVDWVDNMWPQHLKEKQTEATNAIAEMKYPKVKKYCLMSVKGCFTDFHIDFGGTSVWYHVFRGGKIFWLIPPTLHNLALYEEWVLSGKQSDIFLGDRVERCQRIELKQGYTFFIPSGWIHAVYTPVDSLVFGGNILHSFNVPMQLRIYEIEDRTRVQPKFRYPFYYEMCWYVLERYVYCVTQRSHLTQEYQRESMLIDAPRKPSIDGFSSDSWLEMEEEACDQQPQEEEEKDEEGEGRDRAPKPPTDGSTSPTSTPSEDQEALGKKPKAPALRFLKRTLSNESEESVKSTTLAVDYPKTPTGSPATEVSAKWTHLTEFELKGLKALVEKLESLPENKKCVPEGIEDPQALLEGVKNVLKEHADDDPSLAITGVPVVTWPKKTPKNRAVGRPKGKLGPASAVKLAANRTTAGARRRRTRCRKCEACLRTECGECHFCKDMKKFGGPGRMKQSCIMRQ
Description: (§1) This assay determines the ability of a test compound to inhibit FBXL11, FBXL10, and PHF8 demethylase activity. Baculovirus expressed FBXL11 (GenBank Accession #NM_012308, AA1-1162) was purchased from BPS Bioscience (Cat#50102). Baculovirus expressed FBXL10 (GenBank Accession #NM_032590, AA 1-650) was purchased from BPS Bioscience (Cat #50120). Baculovirus expressed PHF8 (GenBank Accession NP_055922.1) was purchased from Active Motif (Cat#31435).
The ability of test compounds to inhibit the activity of FBXL10 was determined in 384-well plate format under the following reaction conditions: 0.3 nM FBXL10, 30 nM H3K36me2-biotin labeled peptide (Anaspec cat # 64442), 0.2 µM alpha-ketoglutaric acid in assay buffer of 50 mM HEPES, pH7.3, 0.005% Brij35, 0.5 mM TCEP, 0.2 mg/ml BSA, 50 µM sodium L-ascorbate, 5 µM ammonium iron(II) sulfate. Reaction product is determined quantitatively by AlphaScreen detection after the addition of detection reagents anti-H3K36me1 antibody, AlphaScreen® Streptavidin-coated Donor beads, and AlphaScreen® Protein A Acceptor beads in 50 mM HEPES, pH7.3, 10 mM NaCl, 0.005% Brij35, 5 mM EDTA, 2 mg/ml BSA to final 10 µg/ml beads.
The assay reaction was initiated by the following: 3 µl of the mixture of 90 nM H3K36me2-biotin labeled peptide and 0.6 µM alpha-ketoglutaric acid with 3 µl of 11-point serial diluted inhibitor in 3% DMSO are added to each well of 384 well Proxiplate (Perkin Elmer), followed by the addition of 3 µl of 0.9 nM FBXL10 to initiate the reaction. The reaction mixture is incubated at room temperature for 1 hour, and terminated by the addition of 3 µl of appropriate dilution of anti H3K36me1 antibody in 50 mM HEPES, pH7.3, 10 mM NaCl, 0.005% Brij35, 5 mM EDTA, 2 mg/ml BSA. Plates will then incubated at room temperature for 40 minutes, followed by addition of 3 µl of 50 µg/ml AlphaScreen® Streptavidin-coated Donor beads and AlphaScreen® Protein A Acceptor beads in 50 mM HEPES, pH7.3, 10 mM NaCl, 0.005% Brij35, 5 mM EDTA, 2 mg/ml BSA. Plates will then be read by EnVision Multilabel Reader in AlphaScreen mode after minimum 2 hour incubation at room temperature. The AlphaScreen signal for each well is used to determine inhibition constant (IC50).

PHF8 = target: T2, PHF8 (Homo sapiens, UniProt Q9UPP1); experiment: PHF8 in vitro enzyme inhibition assay (TR-FRET); format: biochemical; conditions: Table 3; 3 nM PHF8, H3K9me1-biotin labeled peptide
T2 construct: purchased Active Motif 31435
Description: as §1
The ability of test compounds to inhibit the activity of PHF8 was determined in 384-well plate format under the following reaction conditions: 3 nM PHF8, 200 nM H3K9me1-biotin labeled peptide (Anaspec cat #64358), 0.5 µM alpha-ketoglutaric acid in assay buffer of 50 mM HEPES, pH7.3, 0.005% Brij35, 0.5 mM TCEP, 0.2 mg/ml BSA, 50 µM sodium L-ascorbate, and 5 µM ammonium iron(II) sulfate. Reaction product was determined quantitatively by TR-FRET after the addition of detection reagent Phycolink Streptavidin-allophycocyanin (Prozyme) and Europium-anti-unmodified-histone H3 lysine 9/lysine27 (H3K9/K27) antibody (PerkinElmer) in the presence of 5 mM EDTA in LANCE detection buffer (PerkinElmer) at a final concentration of 25 nM and 0.5 nM, respectively.
The assay reaction was initiated by the following: 2 µl of the mixture of 600 nM H3K9me1-biotin labeled peptide and 1.5 µM alpha-ketoglutaric acid with 2 µl of 11-point serial diluted inhibitor in 3% DMSO were added to each well of the plate, followed by the addition of 2 µl of 9 nM PHF8 to initiate the reaction. The reaction mixture was incubated at room temperature for 15 minutes, and terminated by the addition of 6 µl of 5 mM EDTA in LANCE detection buffer containing 50 nM Phycolink Streptavidin-allophycocyanin and 1 nM Europium-anti-unmodified H3K9/K27 antibody. Plates were read by EnVision Multilabel Reader in TR-FRET mode (excitation at 320 nm, emission at 615 nm and 665 nm) after 1 hour incubation at room temperature. A ratio was calculated (665/615) for each well and fitted to determine inhibition constant (IC50).

[1] = tested on: KDM2B-bound genes of the established Mia Paca-2 cancer cell line; experiment: Mia Paca-2 pancreatic cell line expression assay for KDM2B-related genes (real-time PCR); format: cell-based; conditions: Homo sapiens; Table 4; Mia Paca-2 cells; read-out: Cellular IC50
Description: Gene expression assay to assess the ability of KDM2B small molecule inhibitors to activate the expression of KDM2B-bound genes of the established Mia Paca-2 cancer cell line.
This gene expression assay is a real-time PCR assay which quantifies the amount of messenger RNA from genes that are normally repressed by KDM2B interacting with EZH2 compared with a control GAPDH gene whose expression is not regulated by KDM2B. The amount of gene expression is correlated to the amount of small molecule inhibition of KDM2B's enzymatic activity.
The established cancer cell line Mia Paca-2 was purchased from American Type Culture Collection (ATCC) and routinely passaged according to ATCC published protocols. Cells were seeded at a density of 40,000 per 96-well. 24 hours after plating, cells received final concentrations of 20nM, 40nM, 80nM and 320nM of test compound. […] At the end of each of the compound incubation period, media was removed and cells were trypsinized according to the ATCC published protocol. mRNA was then harvested from the cell samples using a RNeasy kit (Qiagen). mRNA was quantified and qualified using a Nanodrop machine (Thermo Scientific). mRNA was converted to cDNA using the High-Capacity cDNA Reverse Transcription Kit (Applied Biosystems). […] Data was analyzed using the delta-delta Ct method to calculate fold enrichment over DMSO sample gene expression.

T2 sequence (Q9UPP1 37-1060): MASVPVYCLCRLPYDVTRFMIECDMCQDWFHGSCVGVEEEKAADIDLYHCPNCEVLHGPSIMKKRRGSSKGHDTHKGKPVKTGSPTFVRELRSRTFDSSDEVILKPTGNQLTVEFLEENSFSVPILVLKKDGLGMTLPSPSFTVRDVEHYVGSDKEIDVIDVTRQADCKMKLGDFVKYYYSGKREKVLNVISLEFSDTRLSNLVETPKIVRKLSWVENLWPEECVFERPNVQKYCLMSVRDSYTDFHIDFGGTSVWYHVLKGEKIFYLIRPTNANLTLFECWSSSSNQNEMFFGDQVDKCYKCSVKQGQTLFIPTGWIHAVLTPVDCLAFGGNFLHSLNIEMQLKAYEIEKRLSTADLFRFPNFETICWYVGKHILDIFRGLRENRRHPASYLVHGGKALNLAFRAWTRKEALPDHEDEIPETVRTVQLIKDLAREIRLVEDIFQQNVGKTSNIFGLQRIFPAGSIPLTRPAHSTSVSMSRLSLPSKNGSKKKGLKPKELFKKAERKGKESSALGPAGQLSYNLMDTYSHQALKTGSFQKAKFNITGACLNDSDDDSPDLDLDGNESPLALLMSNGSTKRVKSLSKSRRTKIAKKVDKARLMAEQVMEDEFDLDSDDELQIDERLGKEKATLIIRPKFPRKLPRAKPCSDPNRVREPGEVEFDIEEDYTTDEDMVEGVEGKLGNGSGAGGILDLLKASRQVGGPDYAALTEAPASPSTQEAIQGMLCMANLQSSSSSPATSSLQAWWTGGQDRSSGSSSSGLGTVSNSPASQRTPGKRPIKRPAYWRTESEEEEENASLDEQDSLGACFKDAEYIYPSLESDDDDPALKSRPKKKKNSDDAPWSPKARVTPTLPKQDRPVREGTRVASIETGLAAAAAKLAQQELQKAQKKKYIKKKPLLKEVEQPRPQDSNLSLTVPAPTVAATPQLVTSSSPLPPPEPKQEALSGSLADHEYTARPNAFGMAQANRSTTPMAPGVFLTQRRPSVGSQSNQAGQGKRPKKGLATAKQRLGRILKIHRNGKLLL

SMILES	IC50 (FBXL10) [nM]	IC50 (PHF8) [nM]	IC50 [1] [nM]
Fc1c(Cn2cnc(-c3cc(-c4c[nH]nn4)ccn3)c2)cccc1OC(F)(F)F [Example 26, 2-[1-[[2-fluoro-3-(trifluoromethoxy)phenyl]methyl]imidazol-4-yl]-4-(1H-triazol-4-yl)pyridine]	100 to 1000	–	–
CC(Cc1ccccc1)n1cnc(-c2cc(-c3c[nH]nn3)ccn2)c1 (stereo not drawn) [Example 33, 2-[1-(1-phenylpropan-2-yl)imidazol-4-yl]-4-(1H-triazol-4-yl)pyridine]	100 to 1000	–	–
c1ccc(-c2ccccc2CCn2cnc(-c3cc(-c4c[nH]nn4)ccn3)c2)cc1 [Example 27, 2-[1-[2-(2-phenylphenyl)ethyl]imidazol-4-yl]-4-(1H-triazol-4-yl)pyridine]	100 to 1000	–	–
Clc1ccccc1Cn1cnc(-c2cc(-c3cn[nH]n3)ccn2)c1Br [Example 55, 2-(5-bromo-1-(2-chlorobenzyl)-1H-imidazol-4-yl)-4-(2H-1,2,3-triazol-4-yl)pyridine]	≤ 100	100 to 1000	–
FC(F)(F)Oc1ccccc1CCn1cnc(-c2cc(-c3c[nH]nn3)ccn2)c1 [Example 34]	≤ 100	100 to 1000	–
FC(F)(F)c1[nH]nnc1-c1ccnc(-c2cn(CCc3cccc4ccccc34)cn2)c1 [Example 37, 2-[1-(2-naphthalen-1-ylethyl)imidazol-4-yl]-4-[5-(trifluoromethyl)-1H-triazol-4-yl]pyridine]	–	–	100 to 1000

Other lines, results leading:

IC50 (FBXL10) [nM]	IC50 (PHF8) [nM]	IC50 [1] [nM]	SMILES
100 to 1000	1000 to 10000	–	Clc1cc(Cl)cc(-n2cnc(-c3cc4[nH]nnc4cn3)c2)c1 [Example 52, 1-(3,5-dichlorophenyl)-4-{1H-[1,2,3]triazolo[4,5-c]pyridin-6-yl}-1H-imidazole]
–	–	1000 to 10000	Cn1cnc(-c2cc(-c3nn[nH]c3F)ccn2)c1-c1ccc(F)cc1OCC1CC1 [Example 41, 2-[5-[2-(cyclopropylmethoxy)-4-fluorophenyl]-1-methylimidazol-4-yl]-4-(5-fluoro-1H-triazol-4-yl)pyridine]
≤ 100	1000 to 10000	–	c1nc(-c2cn(CC3CC3)cn2)cc2[nH]nnc12 [Example 42, 1-(cyclopropylmethyl)-4-{1H-[1,2,3]triazolo[4,5-c]pyridin-6-yl}-1H-imidazole]
100 to 1000	1000 to 10000	–	Cn1cnc(-c2cc3[nH]nnc3cn2)c1-c1ccc(F)cc1 [Example 53, 5-(4-fluorophenyl)-1-methyl-4-{1H-[1,2,3]triazolo[4,5-c]pyridin-6-yl}-1H-imidazole]
